This is an account of results in patent publication US11149031B2, “Substituted N-(3-fluoropropyl)-pyrrolidine compounds, processes for their preparation and therapeutic uses thereof” (SANOFI, priority 2016, dated 2021).

Assay [1] deals with MCF7 cells expressing mutant estrogen receptor Asp 538 Gly. The assay is described as follows: Test B: cell proliferation/viability assay (CellTiter-Glo) on MCF7 Asp 538 Gly mutant. Format: cell-based. The settings on record: Homo sapiens, MCF7, 168 h, MCF7 cells expressing ER Asp 538 Gly mutant, 7 days of compound exposure, read-out: proliferation MCF7 D538G IC50. In short, it runs like this: (§1)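 Seven-day compound exposure, 9 concentrations from 3 to 0.000001 μM, in phenol red-free medium with 5% charcoal-stripped serum. ER Tyr537Ser and Asp538Gly lines derive from transfected MCF7 selected to grow without estradiol. Viability from CellTiter-Glo luminescence, background-corrected, as percent of untreated.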

Assay [2] concerns the target His6-ERα298-554 WT (ERα ligand-binding domain) (Homo sapiens (Human), UniProt P03372). The assay is described as follows: Test A: biochemical antagonist activity, LanthaScreen TR-FRET ERα coactivator assay, WT. The settings on record: read-out: Antagonism WT IC50. In short, it runs like this:
(§2)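 His6-ERα LBD (aa 298–554), 0.5 nM, with Tb-anti-His6 antibody, 250 nM PGC1a peptide and 3 nM (or 10 nM) estradiol in pH 7.4 potassium phosphate/DTT buffer; incubated with compound overnight at room temperature. IC50 from 4-parameter logistic fit of TR-FRET 520:495 nm ratio.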
For orientation: TR-FRET usually uses a lanthanide donor and a delayed reading to cut background.

The test system of assay [3] is MCF7 cells expressing mutant estrogen receptor Tyr 537 Ser. The assay is described as follows: Test B: cell proliferation/viability assay (CellTiter-Glo) on MCF7 Tyr 537 Ser mutant. Format: cell-based. The settings on record: Homo sapiens, MCF7, 168 h, MCF7 cells expressing ER Tyr 537 Ser mutant, 7 days of compound exposure, read-out: proliferation MCF7 Y537S IC50. In short, it runs like this:
as §1
In general terms: In ATP-based viability assays light output follows the ATP content of the culture.

The subject of assay [4] is MCF7 cells (breast tumor cells) WT. The assay is described as follows: Test B: cell proliferation/viability assay (CellTiter-Glo) on MCF7 WT. Format: cell-based. The settings on record: Homo sapiens, MCF7, 168 h, 7 days of compound exposure. In a few lines:
as §1

A further assay deals with ERα in MCF7 cells (Homo sapiens (Human), UniProt P03372). The assay is described as follows: Test C: estrogen receptor degradation activity, ERα in cell western assay in MCF7 cells. Format: cell-based. The settings on record: for DC50: 4 hours post compound addition, ERα in cell western, read-out: Degradation IC50; for % Degradation at 3 μM: 4 hours, relative to fulvestrant. In short, it runs like this: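 In-cell western: ERα level (green) against DNA stain Syto-64 (red) by integrated intensity. MCF7 cells in hormone-depleted medium exposed 4 h to compound at 3-0.000018 μM final (1:5 series); fulvestrant 0.1 μM as positive control.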
Chain of ERα in MCF7 cells (P03372 whole entry): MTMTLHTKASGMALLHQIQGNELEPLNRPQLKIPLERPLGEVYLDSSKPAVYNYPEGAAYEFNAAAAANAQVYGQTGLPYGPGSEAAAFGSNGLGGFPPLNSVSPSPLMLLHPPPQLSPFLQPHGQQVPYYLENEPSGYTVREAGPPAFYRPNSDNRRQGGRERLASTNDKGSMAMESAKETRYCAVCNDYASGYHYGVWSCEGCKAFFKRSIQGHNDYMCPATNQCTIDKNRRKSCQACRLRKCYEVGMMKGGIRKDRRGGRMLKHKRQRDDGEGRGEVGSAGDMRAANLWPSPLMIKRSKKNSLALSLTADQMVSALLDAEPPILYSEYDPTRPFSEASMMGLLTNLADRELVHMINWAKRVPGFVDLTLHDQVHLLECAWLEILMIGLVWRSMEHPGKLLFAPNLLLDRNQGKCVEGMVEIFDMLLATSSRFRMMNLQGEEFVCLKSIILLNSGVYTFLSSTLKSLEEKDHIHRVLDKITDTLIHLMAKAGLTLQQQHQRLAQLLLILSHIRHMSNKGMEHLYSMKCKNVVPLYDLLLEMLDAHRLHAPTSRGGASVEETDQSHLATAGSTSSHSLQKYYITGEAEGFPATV

For assay [5], the target named is His6-ERα298-554 Y537S mutant (ERα ligand-binding domain) (Homo sapiens (Human), UniProt P03372, Y537S). The assay is described as follows: Test A: biochemical antagonist activity, LanthaScreen TR-FRET ERα coactivator assay, Y537S mutant. The settings on record: read-out: Antagonism Y537S IC50. In a few lines: as §2
Chain of His6-ERα298-554 Y537S mutant (ERα ligand-binding domain) (P03372 298-554 Y537S): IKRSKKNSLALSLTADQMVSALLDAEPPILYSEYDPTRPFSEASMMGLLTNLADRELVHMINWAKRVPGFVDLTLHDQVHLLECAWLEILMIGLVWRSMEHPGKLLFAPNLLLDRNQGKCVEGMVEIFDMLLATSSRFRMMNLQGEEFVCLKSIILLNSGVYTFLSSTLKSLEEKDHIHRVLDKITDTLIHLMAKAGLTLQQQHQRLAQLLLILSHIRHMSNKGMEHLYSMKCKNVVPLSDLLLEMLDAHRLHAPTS
Assay [6] concerns the target His6-ERα298-554 D538G mutant (ERα ligand-binding domain) (Homo sapiens (Human), UniProt P03372, D538G). The assay is described as follows: Test A: biochemical antagonist activity, LanthaScreen TR-FRET ERα coactivator assay, D538G mutant. The settings on record: read-out: Antagonism D538G IC50. In a few lines:
as §2

[7] abbreviates: asterisk (*): protocol using 10 nM estradiol.

Where two headings read alike, the source gives them in different places.

Chain of His6-ERα298-554 D538G mutant (ERα ligand-binding domain) (P03372 298-554 D538G): as the sequence (P03372 298-554 Y537S) above, with S240Y, D241G counted along it
Chain of His6-ERα298-554 WT (ERα ligand-binding domain) (P03372 298-554): as the sequence (P03372 298-554 Y537S) above, with S240Y counted along it

Turning to `Oc1ccc2c(c1)SCCC(c1ccc3cc[nH]c3c1)=C2c1ccc(O[C@H]2CCN(CCCF)C2)cc1` [Example 172, 5-[4-[(3S)-1-(3-fluoropropyl)pyrrolidin-3-yl]oxyphenyl]-4-(1H-indol-6-yl)-2,3-dihydro-1-benzothiepin-8-ol], the IC50 in assay [1] is 2 nM; in assay [2] (protocol with 3 nM estradiol) it was 6 nM; in assay [3], 12 nM; in assay [4], 0.2 nM; in assay [5] (protocol with 3 nM estradiol) it was 18 nM; in assay [6] (protocol with 3 nM estradiol), 24 nM. Moreover, the DC50 at ERα in MCF7 cells amounted to 0.4 nM. For the same molecule, on ERα in MCF7 cells, the “% Degradation at 3 μM” value was determined as 87%.
As for `Oc1ccc2c(c1)SCCC(c1ccc3c(c1)CCN3)=C2c1ccc(O[C@H]2CCN(CCCF)C2)cc1` [Example 176, 5-[4-[(3S)-1-(3-fluoropropyl)pyrrolidin-3-yl]oxyphenyl]-4-indolin-5-yl-2,3-dihydro-1-benzothiepin-8-ol], the IC50 is 9 nM in assay [1]; 6 nM in assay [2] (protocol with 3 nM estradiol); 48 nM in assay [3]; 3 nM in assay [4]; 20 nM in assay [5] (protocol with 3 nM estradiol); 28 nM in assay [6] (protocol with 3 nM estradiol). The DC50 at ERα in MCF7 cells was found to be 0.2 nM. Also, the “% Degradation at 3 μM” value at ERα in MCF7 cells was determined as 85%.
Consider `Oc1ccc2c(c1)SCCC(c1cccc3[nH]ccc13)=C2c1ccc(O[C@H]2CCN(CCCF)C2)cc1` [Example 178, 5-[4-[(3S)-1-(3-fluoropropyl)pyrrolidin-3-yl]oxyphenyl]-4-(1H-indol-4-yl)-2,3-dihydro-1-benzothiepin-8-ol], for which the IC50 worked out at 2 nM in assay [1]; 2 nM in assay [2] (protocol with 3 nM estradiol); 16 nM in assay [3]; 0.5 nM in assay [4]; 7 nM in assay [5] (protocol with 3 nM estradiol); 10 nM in assay [6] (protocol with 3 nM estradiol). In addition, the DC50 on ERα in MCF7 cells worked out at 0.4 nM. In addition, the “% Degradation at 3 μM” value at ERα in MCF7 cells was 87%.
For `Oc1ccc2c(c1)SCCC(c1cnc3c(c1)CCN3)=C2c1ccc(O[C@H]2CCN(CCCF)C2)cc1` [Example 183, 4-(2,3-dihydro-1H-pyrrolo[2,3-b]pyridin-5-yl)-5-[4-[(3S)-1-(3-fluoropropyl)pyrrolidin-3-yl]oxyphenyl]-2,3-dihydro-1-benzothiepin-8-ol], the IC50 in assay [1] is 5 nM; in assay [2] (protocol with 3 nM estradiol), 7 nM; in assay [3], 73 nM; in assay [4] it was 1 nM; in assay [5] (protocol with 3 nM estradiol), 70 nM; in assay [6] (protocol with 3 nM estradiol), 122 nM. Moreover, at ERα in MCF7 cells, the DC50 was found to be 1 nM. The “% Degradation at 3 μM” value at ERα in MCF7 cells was determined as 83%.
For the molecule `Oc1ccc2c(c1)SCCC(c1ccc3occc3c1)=C2c1ccc(O[C@H]2CCN(CCCF)C2)cc1` [Example 184, 4-(benzofuran-5-yl)-5-[4-[(3S)-1-(3-fluoropropyl)pyrrolidin-3-yl]oxyphenyl]-2,3-dihydro-1-benzothiepin-8-ol], the IC50 in assay [1] came to 0.7 nM; in assay [2] (protocol with 3 nM estradiol), 1 nM; in assay [3], 4 nM; in assay [4] it was 0.3 nM; in assay [5] (protocol with 3 nM estradiol), 4 nM; in assay [6] (protocol with 3 nM estradiol), 6 nM. Also, the DC50 at ERα in MCF7 cells is 0.7 nM. Moreover, the “% Degradation at 3 μM” value on ERα in MCF7 cells is listed as 87%.
As for `CCOc1ccc(C2=C(c3ccc(O[C@H]4CCN(CCCF)C4)cc3)c3ccc(O)cc3SCC2)cc1F` [Example 185, 4-(4-ethoxy-3-fluoro-phenyl)-5-[4-[(3S)-1-(3-fluoropropyl)pyrrolidin-3-yl]oxyphenyl]-2,3-dihydro-1-benzothiepin-8-ol], the IC50 stood at 1 nM in assay [1]; 2.9 nM in assay [2] (protocol with 3 nM estradiol); 6 nM in assay [3]; 0.4 nM in assay [4]; 65 nM in assay [5] (protocol with 3 nM estradiol); 104 nM in assay [6] (protocol with 3 nM estradiol). The DC50 on ERα in MCF7 cells worked out at 0.7 nM. Also, the “% Degradation at 3 μM” value at ERα in MCF7 cells is on record as 84%.
For `CCOc1ccc(C2=C(c3ccc(O[C@H]4CCN(CCCF)C4)cc3)c3ccc(O)cc3SCC2)c(C)c1` [Example 186, 4-(4-ethoxy-2-methyl-phenyl)-5-[4-[(3S)-1-(3-fluoropropyl)pyrrolidin-3-yl]oxyphenyl]-2,3-dihydro-1-benzothiepin-8-ol], the IC50 in assay [1] was found to be 0.4 nM; in assay [2] (setting [7]) it was 1 nM; in assay [3] it was 5 nM; in assay [4], 0.3 nM; in assay [5] (setting [7]), 16 nM; in assay [6] (setting [7]) it was 21 nM. Moreover, the DC50 on ERα in MCF7 cells was determined as 0.6 nM. Moreover, on ERα in MCF7 cells, the “% Degradation at 3 μM” value was 85%.
In the case of `CCOc1ccc(C2=C(c3ccc(O[C@H]4CCN(CCCF)C4)cc3)c3ccc(O)cc3SCC2)c(F)n1` [Example 187, 4-(6-ethoxy-2-fluoro-3-pyridyl)-5-[4-[(3S)-1-(3-fluoropropyl)pyrrolidin-3-yl]oxyphenyl]-2,3-dihydro-1-benzothiepin-8-ol], the IC50 came to 0.7 nM in assay [1]; 1.5 nM in assay [2] (protocol with 3 nM estradiol); 4 nM in assay [3]; 0.2 nM in assay [4]; 22 nM in assay [5] (protocol with 3 nM estradiol); 43 nM in assay [6] (protocol with 3 nM estradiol). In addition, on ERα in MCF7 cells, the DC50 was 0.5 nM. Besides, on ERα in MCF7 cells, the “% Degradation at 3 μM” value is given as 92%.
Consider `Oc1ccc2c(c1)SCCC(c1ccc(F)c(OC(F)F)c1)=C2c1ccc(O[C@H]2CCN(CCCF)C2)cc1` [Example 188, 4-[3-(difluoromethoxy)-4-fluoro-phenyl]-5-[4-[(3S)-1-(3-fluoropropyl)pyrrolidin-3-yl]oxyphenyl]-2,3-dihydro-1-benzothiepin-8-ol], for which the IC50 in assay [1] was determined as 2 nM; in assay [2] (protocol with 3 nM estradiol), 8.2 nM; in assay [3] it was 4 nM; in assay [4], 0.2 nM; in assay [5] (protocol with 3 nM estradiol) it was 157 nM; in assay [6] (protocol with 3 nM estradiol), 266 nM. Also, at ERα in MCF7 cells, the DC50 amounted to 0.8 nM. In addition, the “% Degradation at 3 μM” value at ERα in MCF7 cells amounted to 90%.
For `COc1ccc(C2=C(c3ccc(O[C@H]4CCN(CCCF)C4)cc3)c3ccc(O)cc3SCC2)c(F)c1` [Example 189, 4-(2-fluoro-4-methoxy-phenyl)-5-[4-[(3S)-1-(3-fluoropropyl)pyrrolidin-3-yl]oxyphenyl]-2,3-dihydro-1-benzothiepin-8-ol], the IC50 in assay [1] was found to be 1 nM; in assay [2] (setting [7]), 2 nM; in assay [3], 4 nM; in assay [4], 0.2 nM; in assay [5] (setting [7]), 19 nM; in assay [6] (setting [7]) it was 31 nM. Also, the DC50 at ERα in MCF7 cells worked out at 0.3 nM. The “% Degradation at 3 μM” value at ERα in MCF7 cells came to 88%.
For the molecule `Oc1ccc2c(c1)SCCC(c1ccc(OC(F)(F)F)c(F)c1)=C2c1ccc(O[C@H]2CCN(CCCF)C2)cc1` [Example 190, 5-[4-[(3S)-1-(3-fluoropropyl)pyrrolidin-3-yl]oxyphenyl]-4-[3-fluoro-4-(trifluoromethoxy)phenyl]-2,3-dihydro-1-benzothiepin-8-ol], the IC50 is 0.8 nM in assay [1]; 39 nM in assay [2] (setting [7]); 6 nM in assay [3]; 0.2 nM in assay [4]; 425 nM in assay [5] (setting [7]); 638 nM in assay [6] (setting [7]). Moreover, at ERα in MCF7 cells, the DC50 came out at 0.5 nM. On ERα in MCF7 cells, the “% Degradation at 3 μM” value was determined as 91%.
`Oc1ccc2c(c1)SCCC(c1ccc(OC(F)F)c(F)c1)=C2c1ccc(O[C@H]2CCN(CCCF)C2)cc1` [Example 191, 4-[4-(difluoromethoxy)-3-fluoro-phenyl]-5-[4-[(3S)-1-(3-fluoropropyl)pyrrolidin-3-yl]oxyphenyl]-2,3-dihydro-1-benzothiepin-8-ol]: the IC50 worked out at 0.4 nM in assay [1]; 3 nM in assay [2] (protocol with 3 nM estradiol); 3 nM in assay [3]; 0.3 nM in assay [4]; 32 nM in assay [5] (protocol with 3 nM estradiol); 51 nM in assay [6] (protocol with 3 nM estradiol). The DC50 at ERα in MCF7 cells amounted to 0.2 nM. Besides, on ERα in MCF7 cells, the “% Degradation at 3 μM” value is recorded as 95%.
Consider `Cc1ccc(C2=C(c3ccc(O[C@H]4CCN(CCCF)C4)cc3)c3ccc(O)cc3SCC2)c(F)n1` [Example 192, 4-(2-fluoro-6-methyl-3-pyridyl)-5-[4-[(3S)-1-(3-fluoropropyl)pyrrolidin-3-yl]oxyphenyl]-2,3-dihydro-1-benzothiepin-8-ol], for which the IC50 worked out at 0.9 nM in assay [1]; 9 nM in assay [2] (setting [7]); 5 nM in assay [3]; 0.3 nM in assay [4]; 109 nM in assay [5] (setting [7]); 205 nM in assay [6] (setting [7]). In addition, the DC50 on ERα in MCF7 cells was found to be 0.4 nM. The “% Degradation at 3 μM” value on ERα in MCF7 cells is recorded as 91%.
